The subject of data set [1] is HCT-116. Kind of data set: Growth inhibition of human HCT116 cells after 48 hrs by sulforhodamine-B assay. It is filed as functional, cell-based. The conditions noted are these: HCT-116, 48 h.
In data set [2] the test system is A549. Kind of data set: Growth inhibition of human A549 cells assessed as dead cells at 50 uM after 48 hrs by sulforhodamine-B assay relative to control. It is filed as functional. The conditions noted are these: A549, 48 h, read-out: GI.
Data set [3] has as its system HCT-116. Kind of data set: Growth inhibition of human HCT116 cells assessed as dead cells at 10 uM after 48 hrs by sulforhodamine-B assay relative to control. The class given is functional. To be noted: HCT-116, 48 h, read-out: GI.
Data set [4] deals with THP-1. Kind of data set: Growth inhibition of human THP1 cells after 48 hrs by sulforhodamine-B assay. It is filed as functional, cell-based. The conditions noted are these: THP-1, 48 h.
The nature of data set [5]: Growth inhibition of human FR2 cells assessed as dead cells at 50 uM after 48 hrs by sulforhodamine-B assay relative to control. To be noted: read-out: GI. It is filed as cell-based.
The subject of data set [6] is THP-1. Kind of data set: Growth inhibition of human THP1 cells assessed as dead cells at 10 uM after 48 hrs by sulforhodamine-B assay relative to control. It is filed as functional. To be noted: THP-1, 48 h, read-out: GI.
A short description of data set [7]: Growth inhibition of human FR2 cells after 48 hrs by sulforhodamine-B assay. The class given is cell-based. The conditions noted are these: FR2, 48 h.
Data set [8] relates to MCF7. Kind of data set: Growth inhibition of human MCF7 cells assessed as dead cells at 50 uM after 48 hrs by sulforhodamine-B assay relative to control. The class given is functional. The conditions noted are these: MCF7, 48 h, read-out: GI.
In data set [9] the test system is MCF7. Kind of data set: Growth inhibition of human MCF7 cells after 48 hrs by sulforhodamine-B assay. The class given is functional, cell-based. To be noted: MCF7, 48 h.
Data set [10] relates to A549. Kind of data set: Growth inhibition of human A549 cells assessed as dead cells at 10 uM after 48 hrs by sulforhodamine-B assay relative to control. It is filed as functional. To be noted: A549, 48 h, read-out: GI.
Data set [11] is described as follows: Growth inhibition of human FR2 cells assessed as dead cells at 10 uM after 48 hrs by sulforhodamine-B assay relative to control. The class given is cell-based. The conditions noted are these: read-out: GI.
Data set [12] deals with MCF7. Kind of data set: Growth inhibition of human MCF7 cells assessed as dead cells at 10 uM after 48 hrs by sulforhodamine-B assay relative to control. To be noted: MCF7, 48 h, read-out: GI. The class given is functional.
The subject of data set [13] is THP-1. Kind of data set: Growth inhibition of human THP1 cells assessed as dead cells at 50 uM after 48 hrs by sulforhodamine-B assay relative to control. The class given is functional. The conditions noted are these: THP-1, 48 h, read-out: GI.
The subject of data set [14] is HCT-116. Kind of data set: Growth inhibition of human HCT116 cells assessed as dead cells at 50 uM after 48 hrs by sulforhodamine-B assay relative to control. The class given is functional. The conditions noted are these: HCT-116, 48 h, read-out: GI.
Data set [15] deals with A549. Kind of data set: Growth inhibition of human A549 cells after 48 hrs by sulforhodamine-B assay. The class given is functional, cell-based. The conditions noted are these: A549, 48 h.
Data set [16] relates to THP-1. Kind of data set: Growth inhibition of human THP1 cells assessed as dead cells at 20 uM after 48 hrs by sulforhodamine-B assay relative to control. It is filed as functional. To be noted: THP-1, 48 h, read-out: GI.
Data set [17] deals with A549. Kind of data set: Growth inhibition of human A549 cells assessed as dead cells at 20 uM after 48 hrs by sulforhodamine-B assay relative to control. The class given is functional. To be noted: A549, 48 h, read-out: GI.
Data set [18] deals with HCT-116. Kind of data set: Growth inhibition of human HCT116 cells assessed as dead cells at 20 uM after 48 hrs by sulforhodamine-B assay relative to control. To be noted: HCT-116, 48 h, read-out: GI. The class given is functional.
Data set [19] relates to A549. Kind of data set: Growth inhibition of human A549 cells assessed as dead cells at 1 uM after 48 hrs by sulforhodamine-B assay relative to control. The class given is functional. To be noted: A549, 48 h, read-out: GI.
Data set [20] has as its system MCF7. Kind of data set: Growth inhibition of human MCF7 cells assessed as dead cells at 1 uM after 48 hrs by sulforhodamine-B assay relative to control. It is filed as functional. To be noted: MCF7, 48 h, read-out: GI.

Turning to `Cc1ccc(-n2cc(COC(=O)[C@]34CC[C@@H](C)[C@H](C)[C@H]3C3=CC[C@@H]5[C@@]6(C)CCC(=O)C(C)(C)[C@@H]6CC[C@@]5(C)[C@]3(C)CC4)nn2)cc1C`, the IC50 was < 0.1 µM in the data set with HCT-116 [1]; 0.9 µM in the data set on THP-1 [4]; 10 µM in data set [7]; 5.5 µM in the data set on MCF7 [9]; 0.5 µM in the data set with A549 [15]. The inhibition of growth at 50 µM with A549 [2] came out at 93%; in the data set on MCF7 [8], 99%; in the data set with THP-1 [13], 94%; with HCT-116 [14], 99%. Moreover, the inhibition of growth at 10 µM in the data set on HCT-116 [3] turned out to be 91%; in the data set with THP-1 [6] it was 82%; in the data set on A549 [10] it was 74%; in the data set with MCF7 [12], 69%. In addition, the inhibition at 48 h, 50 µM in [5] was 85%. Further, the inhibition at 48 h, 10 µM in data set [11] is 68%.

On to `C[C@H]1[C@H](C)CC[C@]2(C(=O)OCc3cn(-c4ccccc4)nn3)CC[C@]3(C)C(=CC[C@@H]4[C@@]5(C)CCC(=O)C(C)(C)[C@@H]5CC[C@]43C)[C@H]12`, for which the IC50 in the data set on HCT-116 [1] is 14 µM; with THP-1 [4], 11 µM; in [7] it was 82 µM; in the data set with MCF7 [9] it was 39 µM; in the data set with A549 [15], 24 µM. The inhibition of growth at 50 µM in the data set with A549 [2] was 64%; with MCF7 [8] it was 51%; with THP-1 [13], 83%; with HCT-116 [14] it was 78%. The inhibition of growth at 10 µM in the data set on HCT-116 [3] was determined as 44%; in the data set on THP-1 [6], 54%; in the data set with A549 [10] it was 43%; in the data set with MCF7 [12], 28%. For the same molecule, in data set [5], the inhibition at 48 h, 50 µM is 45%. Also, the inhibition at 48 h, 10 µM in data set [11] came to 12%.

In the case of `C[C@H]1[C@H](C)CC[C@]2(C(=O)OCc3cn(-c4ccc(Br)cc4)nn3)CC[C@]3(C)C(=CC[C@@H]4[C@@]5(C)CCC(=O)C(C)(C)[C@@H]5CC[C@]43C)[C@H]12`, the IC50 in the data set with HCT-116 [1] is 1.7 µM; in the data set on THP-1 [4] it was 1 µM; in data set [7], 19 µM; in the data set with MCF7 [9] it was 15 µM; in the data set with A549 [15] it was 18 µM. The inhibition of growth at 50 µM was found to be 63% with A549 [2], 78% in the data set with MCF7 [8], 95% in the data set on THP-1 [13] and 92% in the data set with HCT-116 [14]. Further, the inhibition of growth at 10 µM with HCT-116 [3] turned out to be 80%; in the data set on THP-1 [6], 74%; in the data set on A549 [10] it was 45%; in the data set with MCF7 [12] it was 44%. The inhibition at 48 h, 50 µM in data set [5] is 93%. In addition, in [11], the inhibition at 48 h, 10 µM turned out to be 58%.

For the molecule `C#CCOC(=O)[C@]12CC[C@@H](C)[C@H](C)[C@H]1C1=CC[C@@H]3[C@@]4(C)CCC(=O)C(C)(C)[C@@H]4CC[C@@]3(C)[C@]1(C)CC2`, the IC50 in the data set with HCT-116 [1] was 2.3 µM; with THP-1 [4] it was 13 µM; in [7] it was 24 µM; in the data set with MCF7 [9], 56 µM; with A549 [15], 15 µM. The inhibition of growth at 50 µM in the data set with A549 [2] worked out at 78%; with MCF7 [8] it was 42%; in the data set on THP-1 [13], 88%; in the data set on HCT-116 [14], 96%. Besides, the inhibition of growth at 10 µM in the data set on HCT-116 [3] worked out at 74%; with THP-1 [6], 42%; in the data set on A549 [10], 50%; with MCF7 [12] it was 22%. The inhibition at 48 h, 50 µM in data set [5] came to 86%. The inhibition at 48 h, 10 µM in data set [11] came to 33%.

For the molecule `C[C@H]1[C@H](C)CC[C@]2(C(=O)OCc3cn(-c4ccc(F)cc4F)nn3)CC[C@]3(C)C(=CC[C@@H]4[C@@]5(C)CCC(=O)C(C)(C)[C@@H]5CC[C@]43C)[C@H]12`, the IC50 with HCT-116 [1] worked out at 0.47 µM; with THP-1 [4] it was 1.1 µM; in data set [7] it was 44 µM; in the data set on MCF7 [9], 30 µM; in the data set with A549 [15], 6.4 µM. For the same molecule, the inhibition of growth at 50 µM in the data set on A549 [2] worked out at 64%; in the data set with MCF7 [8] it was 73%; in the data set on THP-1 [13], 86%; in the data set on HCT-116 [14], 91%. Besides, the inhibition of growth at 10 µM amounted to 69% with HCT-116 [3], 82% in the data set on THP-1 [6], 57% with A549 [10] and 17% in the data set with MCF7 [12]. The inhibition at 48 h, 50 µM in data set [5] worked out at 78%. For the same molecule, the inhibition at 48 h, 10 µM in [11] came out at 2%.

As for `O=c1[nH]cc(F)c(=O)[nH]1` [FLUOROURACIL], the inhibition of growth at 20 µM in the data set with THP-1 [16] was determined as 96%; with A549 [17], 86%; with HCT-116 [18] it was 76%.

Take `CO[C@@]12[C@H](COC(N)=O)C3=C(C(=O)C(C)=C(N)C3=O)N1C[C@@H]1N[C@@H]12` [MITOMYCIN]: the inhibition of growth at 1 µM stood at 70% in the data set with A549 [19] and 82% in the data set with MCF7 [20].

Regarding `C[C@H]1[C@H](C)CC[C@]2(C(=O)O)CC[C@]3(C)C(=CC[C@@H]4[C@@]5(C)CC[C@H](O)C(C)(C)[C@@H]5CC[C@]43C)[C@H]12` [URSOLIC ACID], the 50% inhibitory concentration (IC50) in the data set on HCT-116 [1] stood at 42 µM; with THP-1 [4], 9.1 µM; in data set [7], 31 µM; with MCF7 [9] it was 37 µM; in the data set on A549 [15] it was 33 µM. For the same molecule, the inhibition of growth at 50 µM with A549 [2] is 61%; in the data set on MCF7 [8], 57%; in the data set with THP-1 [13], 84%; in the data set with HCT-116 [14], 53%. Besides, the inhibition of growth at 10 µM amounted to 55% in the data set with HCT-116 [3], 31% with THP-1 [6], 28% with A549 [10] and 36% in the data set on MCF7 [12]. The inhibition at 48 h, 50 µM in data set [5] turned out to be 66%. Besides, the inhibition at 48 h, 10 µM in data set [11] is 31%.

(Values after ChEMBL document CHEMBL2413076, “Synthesis and biological evaluation of ursolic acid-triazolyl derivatives as potential anti-cancer agents” (Eur J Med Chem, 2013).)
